From US9000191B2, “Serotonin reuptake inhibitors” (Theravance Biopharma R&D IP, LLC, priority 2010, dated 2015)

Assays:
[1] = Peripheral selectivity (Assay 4): free plasma versus free brain exposure after oral dosing; type: in vivo; settings: fed male Sprague-Dawley rats, 0.5-24 hours post-dose, unbound fractions by equilibrium dialysis
Protocol: Fed male Sprague-Dawley rats (n=1/timepoint) were dosed orally with a test compound. Blood (via cardiocentesis), cerebrospinal fluid (CSF) (via cisternae magna) and brain were collected from an animal at 0.5, 1, 2, 4, 8 and 24 hours post-dose. Total plasma, CSF and brain concentrations were determined by LC-MS/MS. The pharmacokinetic parameters were assessed by non-compartmental methods using WinNonlin (Version 5.3, Pharsight, Mountain View, Calif.). The unbound fraction in plasma and brain was determined by equilibrium dialysis. Free plasma and free brain concentrations were determined by multiplying the total concentration in plasma or brain by its respective unbound fraction. CSF was assumed to be unbound, due to the absence of protein. Peripheral selectivity was assessed by comparing the unbound exposures (Cmax and AUC) in free plasma versus CSF and/or free brain.

hSERT = molecular target: T1, hSERT (Homo sapiens, UniProt P31645); assay: hSERT neurotransmitter uptake assay; type: cell-based; settings: serotonin reuptake inhibition, HEK293-hSERT cells; read-out: SERT pIC50 (converted)
T1 construct: expressed in transfected cells; host or cells: HEK293 (stably transfected, G418 selection)
T1 sequence (P31645 whole entry): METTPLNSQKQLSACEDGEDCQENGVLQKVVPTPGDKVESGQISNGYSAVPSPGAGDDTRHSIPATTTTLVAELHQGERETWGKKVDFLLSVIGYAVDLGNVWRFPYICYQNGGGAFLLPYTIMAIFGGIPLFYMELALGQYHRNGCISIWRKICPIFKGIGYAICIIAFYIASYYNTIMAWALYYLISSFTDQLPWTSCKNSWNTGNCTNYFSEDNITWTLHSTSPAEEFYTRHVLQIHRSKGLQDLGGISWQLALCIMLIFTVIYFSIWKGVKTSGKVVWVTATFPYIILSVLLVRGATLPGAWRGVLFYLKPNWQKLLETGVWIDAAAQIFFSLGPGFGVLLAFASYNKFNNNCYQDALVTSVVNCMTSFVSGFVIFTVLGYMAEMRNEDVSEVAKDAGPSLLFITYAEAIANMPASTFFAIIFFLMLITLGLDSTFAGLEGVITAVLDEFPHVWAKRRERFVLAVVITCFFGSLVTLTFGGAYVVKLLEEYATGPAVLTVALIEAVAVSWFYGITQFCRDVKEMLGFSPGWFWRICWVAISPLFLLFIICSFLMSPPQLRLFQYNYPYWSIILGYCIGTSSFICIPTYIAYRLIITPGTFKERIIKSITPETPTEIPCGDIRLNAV
Protocol: Neurotransmitter uptake assays were used to measure inhibition of ^3H-serotonin (^3H-5-HT) uptake into cells expressing hSERT in order to determine the pIC50 values of test compounds at the transporter, similar to the procedures described in Tsuruda et al. (2010) Journal of Pharmacological and Toxicological Methods 61(2):192-204.
HEK293 cells stably-transfected with human recombinant SERT (HEK293-hSERT) were grown in DMEM medium supplemented with 10% dialyzed fetal bovine serum, 100 μg/ml penicillin, 100 μg/ml streptomycin, 2 mM L-glutamine, and 250 μg/ml of the aminoglycoside antibiotic G418. Cells were incubated in a 5% CO2, humidified incubator at 37° C.
The neurotransmitter uptake assay was performed in a 96-well assay plate in a total volume of 100 μL assay buffer containing HEK293-hSERT cells (7500-10,000 cells/well; plated ˜2 hours prior to assay initiation. Neurotransmitter Transporter Uptake Assay dye (0.5 μM), and eleven different concentrations of compound ranging from 10 μM to […] was used. Non-specific uptake was determined in the presence of indatraline (2.5 μM). The final assay buffer was 12.5 mM Tris-HCl, 5 mM HEPES, 3 mM NaHCO3, 0.3 mM KH2PO4, 0.25 mM Na2HPO4, 130 mM NaCl, 5 mM KCl, 1 mM CaCl2, 0.4 mM MgCl2, 0.3 mM MgSO4, 4 mM D-glucose, 0.025% BSA, 0.1 mM ascorbic acid, pH 7.4.
In pre-incubation studies, test compound was added to cells for 30 minutes at 37° C. prior to the addition of fluorescent substrate. For determination of inhibitory potency, a 10-30 minute endpoint substrate accumulation was determined by fluorescence spectroscopy using a Safire (Tecan Group Ltd., Minnendorf, Switzerland) and analysis was performed as described in Tsuruda et al., supra. For real-time measurements, compounds were either preincubated (as above) or mixed with substrate prior to addition, and kinetic measurements, relative fluorescence units (RFU integrated over 0.5 ms), were made using a cycle time of 1 min.

Compound	Free plasma AUC/Free brain AUC [1]	IC50 (hSERT)
CS(=O)(=O)C[C@@H](Oc1ccc(C(F)(F)F)cn1)[C@@H]1CCNC1 [Example 3]	>20	≤ 100 nM
CS(=O)(=O)C[C@@H](Oc1ccc(C(F)(F)F)cc1)[C@H]1CCNC1 [Example 1, (S)-3-[(S)-2-Methanesulfonyl-1-(4-trifluoromethylphenoxy)ethyl]pyrrolidine]	>70	≤ 10 nM
CS(=O)(=O)C[C@@H](Oc1ccc([N+](=O)[O-])cc1)[C@@H]1CCNC1 [Example 2-7, (R)-3-[(S)-2-Methanesulfonyl-1-(4-nitro-phenoxy)ethyl]pyrrolidine]	>20	≤ 100 nM
CS(=O)(=O)C[C@H](Oc1ccc([N+](=O)[O-])cc1)[C@@H]1CCNC1 [Example 2-8, (R)-3-[(R)-2-Methanesulfonyl-1-(4-nitro-phenoxy)ethyl]pyrrolidine]	>10	≤ 100 nM
O=S(=O)(C[C@@H](Oc1ccc(C(F)(F)F)cc1)[C@H]1CCNC1)c1ccccc1 [Example 2-17, (S)-3-[(S)-2-Benzenesulfonyl-1-(4-trifluoromethylphenoxy)ethyl]pyrrolidine]		≤ 10 nM
